# Source: patent publication US20260062443A1 (ALEXION PHARMACEUTICALS, INC., priority 2022, published 2026)
# Target: T1, Human complement C1s enzyme (Homo sapiens, UniProt P09871)
# T1 sequence (P09871 438-688 limits assumed): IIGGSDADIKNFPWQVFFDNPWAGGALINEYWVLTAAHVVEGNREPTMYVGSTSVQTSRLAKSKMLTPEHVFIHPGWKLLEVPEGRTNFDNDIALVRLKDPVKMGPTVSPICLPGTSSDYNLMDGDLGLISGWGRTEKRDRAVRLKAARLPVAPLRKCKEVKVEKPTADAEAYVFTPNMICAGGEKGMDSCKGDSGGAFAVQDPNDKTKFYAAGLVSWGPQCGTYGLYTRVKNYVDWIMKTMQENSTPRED
# T1 sequence (P09871 16-437 partner limits assumed): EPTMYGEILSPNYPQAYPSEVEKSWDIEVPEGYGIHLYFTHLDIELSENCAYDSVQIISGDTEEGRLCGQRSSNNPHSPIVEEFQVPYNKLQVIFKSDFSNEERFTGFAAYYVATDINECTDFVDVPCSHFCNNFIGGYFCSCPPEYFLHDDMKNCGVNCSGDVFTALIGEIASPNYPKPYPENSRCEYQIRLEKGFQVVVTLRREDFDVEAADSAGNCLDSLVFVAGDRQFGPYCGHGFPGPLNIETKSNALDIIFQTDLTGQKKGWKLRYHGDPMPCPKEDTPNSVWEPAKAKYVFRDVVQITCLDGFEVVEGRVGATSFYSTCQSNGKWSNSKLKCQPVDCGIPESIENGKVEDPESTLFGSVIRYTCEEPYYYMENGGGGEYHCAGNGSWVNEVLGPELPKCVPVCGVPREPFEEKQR
# Assay: Human C1s enzyme assay
# Assay type: biochemical
# Details: human complement C1s enzyme 1.16 nM, substrate Z-L-Lys-SBzl 100 μM, 5 min preincubation; read-out: IC50 (Stars), C1s Inhibiting Activity
# Outline: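 IC50 from nonlinear regression of reaction rates versus compound concentration, with rates taken from A405 recorded at 30 s intervals over 30 min after adding 100 μM Z-L-Lys-SBzl plus 100 μM DTNB. Enzyme was human C1s purified from serum, 1.16 nM, given 5 min compound preincubation at room temperature, pH 7.5 Tris/1 M NaCl.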
row,SMILES,IC50
1,"O=C(NCC(=O)N1CC2(C[C@H]1C(=O)NCc1cc3cnccc3[nH]1)OCCO2)c1cccc(Oc2ccccc2)c1 [Compound 144, (S)-N-((1H-pyrrolo[3,2-c]pyridin-2-yl)methyl)-7-((3-phenoxybenzoyl)glycyl)-1,4-dioxa-7-azaspiro[4.4]nonane-8-carboxamide]",< 100 nM
2,"C[C@@H](NC(=O)[C@@H]1C[C@@H](C2OCCCO2)CN1C(=O)CNC(=O)c1ccc2c(c1)Oc1ccccc1S2)c1cc2cnccc2[nH]1 [Compound 145, (2S,4R)-N-((R)-1-(1H-pyrrolo[3,2-c]pyridin-2-yl)ethyl)-4-(1,3-dioxan-2-yl)-1-((phenoxathiine-3-carbonyl)glycyl)pyrrolidine-2-carboxamide]",< 100 nM
3,"C[C@@H](NC(=O)[C@@H]1C[C@H](C2OCCCO2)CN1C(=O)CNC(=O)c1ccc2c(c1)Oc1ccccc1S2)c1cc2cnccc2[nH]1 [Compound 146, (2S,4S)-N-((R)-1-(1H-pyrrolo[3,2-c]pyridin-2-yl)ethyl)-4-(1,3-dioxan-2-yl)-1-((phenoxathiine-3-carbonyl)glycyl)pyrrolidine-2-carboxamide]",< 100 nM
4,"C[C@@H](NC(=O)[C@@H]1C[C@]2(C)C[C@@H]2N1C(=O)CNC(=O)c1ccc(-c2ccc(F)cc2F)cc1)c1cc2cnccc2[nH]1 [Compound 147, (1S,3S,5S)-N-((R)-1-(1H-pyrrolo[3,2-c]pyridin-2-yl)ethyl)-2-((2′,4′-difluoro-[1,1′-biphenyl]-4-carbonyl)glycyl)-5-methyl-2-azabicyclo[3.1.0]hexane-3-carboxamide]",100 to 1000 nM
5,"C[C@@H](NC(=O)[C@@H]1C[C@](F)(CO)CN1C(=O)CNC(=O)c1ccc2c(c1)Oc1ccccc1S2)c1cc2cnccc2[nH]1 [Compound 148, (2S,4R)-N-((R)-1-(1H-pyrrolo[3,2-c]pyridin-2-yl)ethyl)-4-fluoro-4-(hydroxymethyl)-1-((phenoxathiine-3-carbonyl)glycyl)pyrrolidine-2-carboxamide]",< 100 nM
6,"COC[C@@H]1C[C@@H](C(=O)N[C@H](C)c2cc3cnccc3[nH]2)N(C(=O)CNC(=O)c2ccc3c(c2)Oc2ccccc2S3)C1 [Compound 149, (2S,4R)-N-((R)-1-(1H-pyrrolo[3,2-c]pyridin-2-yl)ethyl)-4-(methoxymethyl)-1-((phenoxathiine-3-carbonyl)glycyl)pyrrolidine-2-carboxamide]",< 100 nM
7,"C[C@@H](NC(=O)[C@@H]1C[C@@H](c2nccs2)CN1C(=O)CNC(=O)c1ccc2c(c1)Oc1ccccc1S2)c1cc2cnccc2[nH]1 [Compound 150, (2S,4R)-N-((R)-1-(1H-pyrrolo[3,2-c]pyridin-2-yl)ethyl)-1-((phenoxathiine-3-carbonyl)glycyl)-4-(thiazol-2-yl)pyrrolidine-2-carboxamide]",< 100 nM
8,"O=C(NCC(=O)N1CC[C@@H](O)[C@H]1C(=O)NCc1cc2cnccc2[nH]1)c1ccc(Oc2ccccc2)cc1 [Compound 151, (2S,3R)-N-((1H-pyrrolo[3,2-c]pyridin-2-yl)methyl)-3-hydroxy-1-((4-phenoxybenzoyl)glycyl)pyrrolidine-2-carboxamide]",100 to 1000 nM

# Continued, values first:
row,IC50,SMILES
1,< 100 nM,"C[C@@]12C[C@@H]1N(C(=O)CNC(=O)c1cccc(Oc3ccccc3)c1)[C@H](C(=O)NCc1cc3cnccc3[nH]1)C2 [Compound 152, (1S,3S,5S)-N-((1H-pyrrolo[3,2-c]pyridin-2-yl)methyl)-5-methyl-2-((3-phenoxybenzoyl)glycyl)-2-azabicyclo[3.1.0]hexane-3-carboxamide]"
2,< 100 nM,"C[C@@]12C[C@@H]1N(C(=O)CNC(=O)c1cccc(Oc3ccc(F)cc3)c1)[C@H](C(=O)NCc1cc3cnccc3[nH]1)C2 [Compound 153, (1S,3S,5S)-N-((1H-pyrrolo[3,2-c]pyridin-2-yl)methyl)-2-((3-(4-fluorophenoxy)benzoyl)glycyl)-5-methyl-2-azabicyclo[3.1.0]hexane-3-carboxamide]"
3,< 100 nM,"O=C(NCC(=O)N1C[C@H](OC(F)F)C[C@H]1C(=O)NCc1cc2cnccc2[nH]1)c1cccc(Oc2ccc(F)cc2)c1 [Compound 154, (2S,4R)-N-((1H-pyrrolo[3,2-c]pyridin-2-yl)methyl)-4-(difluoromethoxy)-1-((3-(4-fluorophenoxy)benzoyl)glycyl)pyrrolidine-2-carboxamide]"
4,100 to 1000 nM,"C[C@@]12C[C@@H](C(=O)NCc3cc4cnccc4[nH]3)N(C(=O)CNC(=O)c3cccc(Oc4ccc(F)cc4)c3)[C@@H]1C2 [Compound 155, (1R,3S,5R)-N-((1H-pyrrolo[3,2-c]pyridin-2-yl)methyl)-2-((3-(4-fluorophenoxy)benzoyl)glycyl)-5-methyl-2-azabicyclo[3.1.0]hexane-3-carboxamide]"
5,100 to 1000 nM,"C[C@@]12C[C@@H]1N(C(=O)CN1Cc3ccc(Oc4ccccc4)cc3C1=O)[C@H](C(=O)NCc1cc3cnccc3[nH]1)C2 [Compound 156, (1S,3S,5S)-N-((1H-pyrrolo[3,2-c]pyridin-2-yl)methyl)-5-methyl-2-(2-(1-oxo-6-phenoxyisoindolin-2-yl)acetyl)-2-azabicyclo[3.1.0]hexane-3-carboxamide]"
6,< 100 nM,"O=C(NCC(=O)N1CC2(C[C@H]1C(=O)NCc1cc3cnccc3[nH]1)OCCO2)c1cccc(Oc2ccc(F)cc2)c1 [Compound 157, (S)-N-((1H-pyrrolo[3,2-c]pyridin-2-yl)methyl)-7-((3-(4-fluorophenoxy)benzoyl)glycyl)-1,4-dioxa-7-azaspiro[4.4]nonane-8-carboxamide]"
7,< 100 nM,"O=C(NCC(=O)N1CC[C@@H](O)[C@H]1C(=O)NCc1cc2cnccc2[nH]1)c1ccc2c(c1)Oc1ccccc1S2 [Compound 158, (2S,3R)-N-((1H-pyrrolo[3,2-c]pyridin-2-yl)methyl)-3-hydroxy-1-((phenoxathiine-3-carbonyl)glycyl)pyrrolidine-2-carboxamide]"
8,> 1000 nM,"C[C@@]12C[C@@H]1N(C(=O)CNC(=O)c1cccc(-c3ccccc3)n1)[C@H](C(=O)NCc1cc3cnccc3[nH]1)C2 [Compound 159, (1S,3S,5S)-N-((1H-pyrrolo[3,2-c]pyridin-2-yl)methyl)-5-methyl-2-((6-phenylpicolinoyl)glycyl)-2-azabicyclo[3.1.0]hexane-3-carboxamide]"
9,< 100 nM,"CO[C@@H]1C[C@@H](C(=O)N[C@H](C)c2cc3cnccc3[nH]2)N(C(=O)CNC(=O)c2ccc3c(c2)Oc2ccccc2S3)C1 [Compound 160, (2S,4R)-N-((R)-1-(1H-pyrrolo[3,2-c]pyridin-2-yl)ethyl)-4-methoxy-1-((phenoxathiine-3-carbonyl)glycyl)pyrrolidine-2-carboxamide]"
10,< 100 nM,"C[C@@H](NC(=O)[C@@H]1C[C@]2(CO)C[C@@H]2N1C(=O)CNC(=O)c1ccc2c(c1)Oc1ccccc1S2)c1cc2cnccc2[nH]1 [Compound 161, (1S,3S,5R)-N-((R)-1-(1H-pyrrolo[3,2-c]pyridin-2-yl)ethyl)-5-(hydroxymethyl)-2-((phenoxathiine-3-carbonyl)glycyl)-2-azabicyclo[3.1.0]hexane-3-carboxamide]"
11,100 to 1000 nM,"C[C@@H](NC(=O)[C@@H]1C[C@](F)(CF)CN1C(=O)CNC(=O)c1ccc(-c2ccc(F)cc2F)cc1)c1cc2cnccc2[nH]1 [Compound 162, (2S,4R)-N-((R)-1-(1H-pyrrolo[3,2-c]pyridin-2-yl)ethyl)-1-((2′,4′-difluoro-[1,1′-biphenyl]-4-carbonyl)glycyl)-4-fluoro-4-(fluoromethyl)pyrrolidine-2-carboxamide]"
